Measurements from the PolyMetriX glass transition set.
± gives the standard deviation of the reports.

Row | glass transition temperature | SMILES
1 | 209.00 °C | *c1cccc(N2C(=O)c3ccc(Oc4ccc(Sc5ccc(Oc6ccc7c(c6)C(=O)N(*)C7=O)cc5)cc4)cc3C2=O)c1 (repeat unit)
2 | 24.00 °C | *CC(*)(CC(=O)OCCCC)C(=O)OCCCC (repeat unit)
3 | 190.00 °C | */C(C#N)=C/c1ccc(N(CC)Cc2ccccc2CN(CC)c2ccc(/C=C(\C#N)S(*)(=O)=O)cc2)cc1 (repeat unit)
4 | 395.00 °C | *c1ccc(-c2cc(-c3ccccc3)c3cc(-c4ccc5nc(*)cc(-c6ccccc6)c5c4)ccc3n2)cc1 (repeat unit)
5 | 55.00 °C | *CC(*)(C)C(=O)OCCCCCCCCCCn1c2ccccc2c2cc(/C=C/C3=C(C#N)C(=C(C#N)C#N)OC3(C)C)ccc21 (repeat unit)
6 | 52.00 °C | *CCC[Si](*)(c1ccccc1)c1ccc(N(C)C)cc1 (repeat unit)
7 | 163.00 °C | */C=C/c1cc(OCC(CC)CCCC)c(*)cc1-c1ccc(N(c2ccc(OC)cc2)c2ccc(OC)cc2)cc1 (repeat unit)
8 | 75.00 °C | *CCN(CCOC(=O)NCCCCCCNC(=O)O*)c1ccc(/N=N/c2ccc([N+](=O)[O-])cc2)c(C)c1 (repeat unit)
9 | 90.00 °C | *Oc1ccc(OC(=O)CCCCC(*)=O)cc1 (repeat unit)
10 | 315.00 °C | *c1ccc(-c2cc(-c3ccc(OCCCC#N)cc3)cc(-c3ccc(N4C(=O)c5ccc(Oc6ccc7c(c6)C(=O)N(*)C7=O)cc5C4=O)cc3)n2)cc1 (repeat unit)
11 | 70.00 °C | *CC(c1ccccc1)C1C(=O)N(CCCCCCCCCCCC)C(=O)C1* (repeat unit)
12 | 69.50 °C | *CC(=O)NCCCCCCNC(=O)Cc1ccc(O*)cc1 (repeat unit)
13 | 293.00 °C | *c1ccc(Oc2ccc(N3C(=O)C(c4ccccc4)=C(c4ccc(C5=C(c6ccccc6)C(=O)N(*)C5=O)cc4)C3=O)cc2)cc1 (repeat unit)
14 | -47.90 °C | *CC(*)(C)C(=O)OCCCCCCCCCCCC (repeat unit)
15 | 109.00 °C | *CCCCCCOc1ccc(-c2ccc(O*)c3ccccc23)c2ccccc12 (repeat unit)
16 | 223.50 °C | *CCCCCCCCc1nc2ccc(-c3ccc4nc(*)oc4c3)cc2o1 (repeat unit)
17 | 210.00 °C | *Oc1cccc(Oc2ccc(-c3ccc(*)cc3)cc2)c1C#N (repeat unit)
18 | 251.00 °C | *c1cccc(Oc2ccc(-c3ccc(Oc4cccc(-n5c(=O)c6cc7c(=O)n(*)c(=O)c7cc6c5=O)c4)cc3)cc2)c1 (repeat unit)

Row | glass transition temperature | SMILES
19 | 225.00 °C | *C(=O)Oc1ccc(C(C)(C)c2ccc(OC(=O)c3ccc4c(c3)C(=O)N(c3ccc(O)c(N5C(=O)c6ccc(*)cc6C5=O)c3)C4=O)cc2)cc1 (repeat unit)
20 | 246.00 °C | *C(=O)c1ccc2c(c1)C(=O)N(c1ccc(Oc3ccc(C(=O)c4ccc5cc(C(=O)c6ccc(Oc7ccc(N8C(=O)c9ccc(*)cc9C8=O)cc7)cc6)ccc5c4)cc3)cc1)C2=O (repeat unit)
21 | 62.50 °C | *CC(COC(=O)c1ccc(N2C(=O)C3C4C=CC(C4)C3C2=O)cc1)O* (repeat unit)
22 | 460.00 °C | *c1ccc(-c2sc(-c3ccc(-n4c(=O)c5cc6c(=O)n(*)c(=O)c6cc5c4=O)cc3)c(-c3ccccc3)c2-c2ccccc2)cc1 (repeat unit)
23 | 267.00 °C | *C(=O)Nc1ccc(-c2ccc(NC(=O)c3ccc4c(c3)C(=O)N(c3c(C)cc(C)c(N5C(=O)c6ccc(*)cc6C5=O)c3C)C4=O)cc2C(F)(F)F)c(C(F)(F)F)c1 (repeat unit)
24 | 135.00 °C | *Oc1ccc(OC(=O)c2ccc(Sc3cccc(OC(=O)c4ccc(C(=O)Oc5cccc(Sc6ccc(C(*)=O)cc6)c5)cc4)c3)cc2)cc1C (repeat unit)
25 | 130.00 °C | *Oc1cc(OC(=O)c2ccc(C(*)=O)cc2)cc(C(=O)OCCN(CC)c2ccc(/N=N/c3ccc([N+](=O)[O-])cc3)cc2)c1 (repeat unit)
26 | 52.50 °C | *CCCCCCCOC(=O)c1ccc2cc(C(=O)O*)ccc2c1 (repeat unit)
27 | 230.00 °C | *CC1CC2CC1C1CCC(CN3C(=O)c4ccc(-c5ccc6c(c5)C(=O)N(*)C6=O)cc4C3=O)C21 (repeat unit)
28 | 15.50 °C | *Oc1ccc(CC(NC(=O)CCc2ccc(OC(=O)CCCCCCCCC(*)=O)cc2)C(=O)OCCCCCCCC)cc1 (repeat unit)
29 | -8.00 °C | *O[Si](C)(C)c1cccc(C(F)(F)C(F)(F)C(F)(F)c2cccc([Si](*)(C)C)c2)c1 (repeat unit)
30 | 50.00 °C | *CCCCCCCCCCCCCCCCCCNC(=O)CCCCCCCCCCCCCCCCC(=O)N* (repeat unit)
31 | -68.00 °C | *CC(*)C(=O)OCC(F)(F)C(F)(F)OC(F)(F)C(F)(F)C(F)(F)F (repeat unit)
32 | 173.00 °C | *CCN(CCOC(=O)c1ccc(C(=O)O*)c(OC)c1)c1ccc(/N=N/c2ccc(/C=C/c3nc4ccc([N+](=O)[O-])cc4n3CC)cc2)cc1 (repeat unit)
33 | 85.00 °C | *c1ccc(-c2ccc(N(*)c3ccc(C)cc3)cc2)cc1 (repeat unit)
34 | -45.00 °C | *CCOC(=O)CCCCCCCC(=O)O* (repeat unit)
35 | 163.00 °C | *c1ccc(NC(=O)CCCCCC(=O)Nc2ccc(S(*)(=O)=O)cc2)cc1 (repeat unit)

Row | SMILES | glass transition temperature
36 | *CC(*)c1ccc(OP2(OCCOCCOCCOC)=NP(OCCOCCOCCOC)(OCCOCCOCCOC)=NP(OCCOCCOCCOC)(OCCOCCOCCOC)=N2)cc1 (repeat unit) | -46.00 °C
37 | *=NP(=NP(=NC(=*)Oc1ccccc1C(F)(F)F)(Oc1ccccc1C(F)(F)F)Oc1ccccc1C(F)(F)F)(Oc1ccccc1C(F)(F)F)Oc1ccccc1C(F)(F)F (repeat unit) | -20.00 °C
38 | *CC(*)c1ccccc1 (repeat unit) [atactic polystyrene] | 95.96 ± 28 °C
39 | *c1cccc(P(=O)(c2ccc(C(F)(F)F)cc2)c2cccc(-n3c(=O)c4cc5c(=O)n(*)c(=O)c5cc4c3=O)c2)c1 (repeat unit) | 311.00 °C
40 | *CC(*)(C)C(=O)Oc1c(C)cccc1C (repeat unit) | 167.00 °C
41 | *CC(*)(C)C(=O)OC1CCCCC1C (repeat unit) | 85.00 °C
42 | *CC(*)C(=O)OCC(F)(F)C(F)(F)F (repeat unit) | -26.00 °C
43 | *CC(*)c1cc(Br)ccc1OCCC (repeat unit) | 54.00 °C
44 | *CCOc1ccc(/C=C2\CC/C(=C\c3ccc(OCCOP(=O)(O*)OCC)c(OC)c3)C2=O)cc1OC (repeat unit) | 80.00 °C
45 | *CC(*)c1ccc(Cl)cc1Cl (repeat unit) [Poly(2,4-dichloro styrene) ] | 133 ± 2.6 °C
46 | *Nc1ccc(NC(=O)c2ccc(NC(=O)c3ccc(P(=O)(c4ccccc4)c4ccc(C(*)=O)cc4)cc3)cc2)cc1 (repeat unit) | 243.00 °C
47 | *CC(CO*)C(C)(C)C (repeat unit) | -4.00 °C
